Key:
[1] = system: patient suffering from pemphigus vulgaris; assay: Case reports: patients suffering from pemphigus vulgaris; assay type: in vivo, human
Description: A patient suffering from pemphigus vulgaris and taking 15 mg of chobetesol propionate per day began taking 15 mg per day of topiramate. The dose was increased to 45 mg in divided dosages over a three week period. […] This occurred and was maintained even after chobetesol propionate was reduced to 5 mg every 3 days, at 8 weeks from the initial dose of 15 mg per day. […] A patient suffering from permphigus vulgaris and taking 50 mg twice a day of immuran and 20 mg per day of prednisone began taking 15 mg per day of topiramate. The dose was increased to 45 mg per day in divided dosages over a three-week period. […] This occurred in spite of reducing the immuran to 50 mg and prednisone to 10 mg each day, which were their lowest dosages in two years. […] These improvements continued to be maintained at 20 weeks and Ig antibody was zero.

[2] = system: patient suffering from psoriatic arthritis; assay: Case reports: patients suffering from psoriatic arthritis; assay type: in vivo, human
Description: A patient suffering from psoriatic arthritis began taking 15 mg per day of topiramate. […] When the dose was increased slightly to 25 mg twice a day, the patient realized they were experiencing minimal pain and resumed garden work using a rototiller for the first time in two years. These benefits have continued for more than five months at this dose. […] This has continued for more than ten months. A patient suffering from psoriatic arthritis began taking 25 mg per day of topiramate. The dosage was increased each week until […] was achieved. […] The patient was stabilized at 25 mg, twice a day, for convenience. Their benefits from topiramate have continued for almost five months.

[3] = system: patient suffering from psoriasis; assay: Case reports: patients suffering from psoriasis; assay type: in vivo, human
Description: A patient suffering from psoriasis began taking 15 mg per day of topiramate for seven days, which was increased by 15 mg per day until reaching a dose of 45 mg/day in equally divided doses.

[4] = system: patient suffering from rheumatoid arthritis; assay: Case reports: patients suffering from rheumatoid arthritis; assay type: in vivo, human
Description: A patient suffering from rheumatoid arthritis was administered 25 mg per day of topiramate with an increase every 10 days by 25 mg until 25 mg, 3 times per day, was achieved. The patient previously took 3 or 4 tablets per day of lortab, seven 2.5 mg tablets of methotrexate once a week, 200 mg per day of minocycline and 10 mg per day of prednisone.
An adolescent patient suffering from rheumatoid arthritis began taking 15 mg per day of topiramate for one week, which was then increased by 15 mg weekly until 45 mg per day, in three divided dosages of 15 mg each, was reached. The patient previously took 3 to 5 mg of prednisone daily.
A patient suffering from rheumatoid arthritis with a positive rheumatic factor about 3 decades earlier, at which time they also experienced polyarthritis and Renaud's phenomena, was treated with prednisone 40 mg per day for six months and was then weaned off the prednisone after one year. In the ensuing years, psoriasis developed on both elbows which was worse in the winter. They were an avid golfer and experienced painful swelling and stiffness of both wrists and hands, especially the left, and back pain and stiffness. […] They were begun on Topamax 15 mg a day which was increased weekly by 15 mg until 45 mg per day was taken in divided doses.

[5] = system: rodent models of epilepsy; details: several rodent models of epilepsy; cited from earlier work
[6] = Example 6, 25 mg per day, 4 weeks

CC1(C)O[C@@H]2[C@@H](CO[C@@]3(COS(N)(=O)=O)OC(C)(C)O[C@@H]23)O1 [topiramate, 2,3:4,5-bis-O-(1-methylethylidence)-β-D-fructopyranose sulfamate]
time at which improvement continued to be maintained ([1]; Example 13): 12 weeks
lesions ([1]; Example 13, 45 mg in divided dosages, chobetesol propionate reduced): began to shrink, dried up and formed a scab, which came off leaving normal skin
time at which improvements continued to be maintained ([1]; Example 14): 20 weeks
lesions ([1]; Example 14, 30 mg twice a day): second lesion healing
lesions ([1]; Example 14, 45 mg per day, at three weeks): one lesion was shrinking
lesions ([1]; Example 14, 45 mg per day, by four weeks, immuran and prednisone reduced): healed and the second lesion was beginning to shrink
Ig antibody ([1]; Example 14, at 20 weeks): zero
getting out of bed ([2]; Example 5, 15 mg every morning and 30 mg every evening, after one month): able to more easily get out of bed
skin lesions and joint pain ([2]; Example 5, 15 mg twice per day): some improvement in skin lesions and decreased joint pain
duration of benefits ([2]; Example 5, 25 mg twice a day): more than five
pain ([2]; Example 5, 25 mg twice a day): minimal pain
duration of improvement ([2]; Example 6, 7.5 mg twice a day): more than ten
adverse effect [2, 6]: severe lethargy
middle knuckle swelling [2, 6]: significant reduction and almost total disappearance
course of improvement ([2]; Example 6, dose reduced to 7.5 mg twice a day): improvement continued
duration of benefits ([2]; Example 7, 25 mg, twice a day): five
pain and mobility ([2]; Example 7, 45 mg per day): significant decrease in pain and greater mobility
time at which PASI decrease was maintained ([3]; Example 12): 16 weeks
psoriasis area and severity index (PASI) ([3]; Example 12, 25 mg bid, within 8 weeks, from 12.2): 5.4
lesions ([3]; Example 12, after 10 days at 45 mg): began to decrease
lesions ([3]; Example 16, 15 mg every other day): minimal improvement
lesions ([3]; Example 16, 15 mg per day for 7 days): some improvement
lesions ([3]; Example 16, 30 mg/day in divided dosages): began to get worse
lesions ([3]; Example 16, 45 mg/day in divided doses): clear deterioration
lesions ([3]; Example 16, 60 mg per day): new lesions were occurring
PASI ([3]; Example 16, within the first eight weeks, judged to be unchanged): 29.1
duration of benefit ([4]; Example 3): 15 weeks
mobility ([4]; Example 3, 25 mg, 3 times per day): increased mobility
pain (patient reported) ([4]; Example 3, 25 mg, 3 times per day, lortab and minocycline discontinued, prednisone and methotrexate reduced): significant decrease in pain
decrease in pain ([4]; Example 4, adolescent patient, 15 mg twice a day): 40-50%
reduction in pain ([4]; Example 4, adolescent patient, 45 mg per day): 70%
duration of benefits ([4]; Example 4, prednisone decreased to 0.5 mg/day): four
psoriasis ([4]; Example 17, 45 mg per day in divided doses): improvement in their psoriasis
joint pain in both hands, self-rating scale of 0 to 10 ([4]; Example 17, 45 mg per day in divided doses, decreased from 6): 2
seizures [5]: effectively block seizures

— US20030144347A1, “Method for treating autoimmune disease” (priority 2001, published 2003)
